According to patent US20210322508A1, “PEPTIDES AND COMPOSITIONS FOR TARGETED TREATMENT AND IMAGING” (SIGNABLOK, INC., priority 2018, published 2021):
Residues, ends and D or L forms follow the SMILES beside them.

Tests used:
[1] = system: human non-small cell lung cancer H292 xenograft; assay: H292 xenograft mouse model; format: in vivo, mice; conditions: vs vehicle
From the text: (§1) PTX, paclitaxel. ****, P<0.0001 as compared with vehicle-treated animals.
(§2) PTX, paclitaxel. ****, p<0.0001 as compared with vehicle-treated animals.
(§3) Abbreviations: PTX, paclitaxel; PBS, phosphate-buffer saline.

LPS-challenged mice [2] = assay: cytokine production in LPS-challenged mice; format: in vivo; conditions: treated 1 h before LPS challenge
Method: Control peptide represents an equimolar mixture of two peptides, each of them comprising two amino acid domains A and B where domain A represents a non-functional 9 amino acids-long sequence of the TREM-1 inhibitory therapeutic peptide sequence wherein, Lys5 is substituted with Ala5, whereas domain B is a sulfoxidized methionine residue-containing 22 amino acids-long apolipoprotein A-I helix 4 or 6 peptide sequence, respectively. *, P=0.01 to 0.05 as compared with animals treated with 5 mg/kg TRIOPEP in free form; ***, P=0.0001 to 0.001 as compared with PBS-treated animals.

LPS-challenged mice [3] = assay: survival of LPS-challenged (septic shock) mice; format: in vivo; conditions: vs vehicle
From the text: FIG. 15B. **, P=0.001 to 0.01 as compared with vehicle-treated animals.

J774A.1 macrophages = assay: In vitro macrophage endocytosis of fluorescent peptides with or without HDL; format: cell-based, mouse; conditions: for receptors mediating in vitro macrophage endocytosis: pre-incubated with HDL, fucoidan, BLT-1, cytochalasin D; for in vitro macrophage endocytosis, effect of pre-incubation with HDL: rho B-labeled peptides, 1 mg/ml HDL
Method: The BALB/c murine macrophage cell line J774A.1 (ATCC TIB-67) were obtained from the American Type Culture Collection (ATCC, Manassas, Va.). The macrophage cells were cultured at 37° C. with 5% CO2 in Dulbecco's modified Eagle's medium (DMEM) (Cellgro, Mediatech Inc, Manassas, Va.) with 2 mM glutamine, 100 U/ml penicillin, 0.1 mg/ml streptomycin, and 10% fetal bovine serum (FBS) (Cellgro, Mediatech Inc, Manassas, Va.) and grown to approximately 90% of confluence in 6-well tissue culture plates (Corning, Tewksbury, Mass.). Cells were incubated for varied time periods from 4 to 24 h at 37° C. with fluorescently labeled peptides (pre-incubated with 1 mg/ml HDL) at a concentration of 4 μM rhodamine B (rho-B). After incubation, cells were washed twice with PBS and lysed using Promega passive lysis buffer (Promega, Madison, Wis.). The rho B fluorescence was measured in the lysates with a 540 nm excitation and a 590 nm emission filters using the Gemini EM fluorescence microplate reader (Molecular Devices, Sunnyvale, Calif.). The protein concentration in the lysates was determined using the Bradford reagent (Bio-Rad, Richmond, Calif.) and the SpectraMax 190 microplate reader (Molecular Devices, Sunnyvale, Calif.).
In one embodiment, after reaching target confluency, cells were incubated for 1 h in medium with or without fucoidan (400 μg/mL), BLT-1 (10 μM) or cytochalasin D (40 μM), Cells were subsequently incubated for 4 h and 22 h at 37° C. in medium containing 2 μM of rho B-labeled peptides G-KV21 and G-HV21 (as calculated for rho B) that were pre-incubated with 1 mg/ml HDL. After incubation, cells were washed twice with PBS and lysed using Promega passive lysis buffer. The rho B fluorescence and protein concentration were measured in the lysates as described above.

[4] = system: human non-small cell lung cancer A549 xenograft; format: in vivo; conditions: vs vehicle; for tumor growth: PTX 20 mg/kg as comparator
Method: as §1, §2, §3
Treatment persisted for 21 days. Mean tumor volumes are calculated and plotted. Body weighs are plotted.

[5] = system: LPS-stimulated J774A.1 macrophages (TNF-alpha, IL-6, IL-1beta); assay: In vitro cytokine release by LPS-stimulated macrophages; format: cell-based, mouse; conditions: 10 ng/ml after pre-incubation with HDL; LPS 1 μg/ml, 24 h
Method: (§4) The BALB/c murine macrophage cell line J774A.1 (ATCC TIB-67) were obtained from the American Type Culture Collection (ATCC, Manassas, Va.). Macrophages were cultured in 48-well plates (Corning, Cambridge, Mass.) for 24 h at 37° C. in the presence of LPS (1 μg/ml, Escherichia coli 055:B5, Sigma) in combination with 10 ng/ml peptides either pre-incubated or not with HDL. Cell-free supernatants were harvested and stored at −20° C. for later cytokine quantification. TNF-alpha, IL-6, and IL-1beta were assayed using commercial ELISA kits (Pierce Biotechnology, Thermo Scientific, Rockford, Ill.) according to the recommendations of the manufacturer. Results were represented as the mean±S.D. of three independent experiments. Statistical significances in in vitro macrophage uptake assay were determined by two-tailed Student's t test.
as §4, with “Macrophages were cultured in 48-well plates (Corning, Cambridge, Mass.) for 24 h at 37° C. in the presence of LPS (1 μg/ml, Escherichia coli 055:B5, Sigma) in combination with 10 ng/ml peptides either pre-incubated or not with HDL.” left out

Structure (SMILES)	tumor growth [1]	TNF-alpha, IL-6 and IL-1beta production in mice at 90 min post LPS challenge (LPS-challenged mice [2])	survival of LPS-challenged mice (LPS-challenged mice [3])	receptors mediating in vitro macrophage endocytosis (J774A.1 macrophages)	in vitro macrophage endocytosis, effect of pre-incubation with HDL (J774A.1 macrophages)	average tumor weights [4]	tumor growth [4]	production of cytokines by LPS-stimulated macrophages [5]
CC(C)C[C@H](NC(=O)[C@H](Cc1ccccc1)NC(=O)CN)C(=O)N[C@@H](CO)C(=O)N[C@@H](CCCCN)C(=O)N[C@@H](CO)C(=O)N[C@@H](CC(C)C)C(=O)N[C@H](C(=O)N[C@@H](Cc1ccccc1)C(=O)NCC(=O)N[C@@H](CCC(=O)O)C(=O)N[C@@H](CCC(=O)O)C(=O)N[C@@H](CC[S+](C)[O-])C(=O)N[C@@H](CCCNC(=N)N)C(=O)N[C@@H](CC(=O)O)C(=O)N[C@@H](CCCNC(=N)N)C(=O)N[C@@H](C)C(=O)N[C@@H](CCCNC(=N)N)C(=O)N[C@@H](C)C(=O)N[C@@H](Cc1c[nH]cn1)C(=O)N[C@H](C(=O)O)C(C)C)C(C)C (stereo partly shown) [G-HV21] (HELM PEPTIDE1{G.F.L.S.K.S.L.V.F.G.E.E.[CS(=O)CC[C@H](N[*:1])C(=O)[*:2]].R.D.R.A.R.A.H.V}$$$$V2.0)	significantly inhibit the tumor growth	significantly inhibit the LPS-induced cytokine release	significantly improve survival	mediated with scavenger receptors (SR) A (SR-A) and BI (SR-B1) with SR-A being the predominant mediator	enhances in vitro macrophage endocytosis	significantly decrease the tumor weight	significantly inhibit the tumor growth	inhibit production of cytokines by LPS-stimulated macrophages
CC(C)C[C@H](NC(=O)[C@H](Cc1ccccc1)NC(=O)CN)C(=O)N[C@@H](CO)C(=O)N[C@@H](CCCCN)C(=O)N[C@@H](CO)C(=O)N[C@@H](CC(C)C)C(=O)N[C@H](C(=O)N[C@@H](Cc1ccccc1)C(=O)N[C@@H](Cc1c[nH]c2ccccc12)C(=O)N[C@@H](CCC(N)=O)C(=O)N[C@@H](CCC(=O)O)C(=O)N[C@@H](CCC(=O)O)C(=O)N[C@@H](CC[S+](C)[O-])C(=O)N[C@@H](CCC(=O)O)C(=O)N[C@@H](CC(C)C)C(=O)N[C@@H](Cc1ccc(O)cc1)C(=O)N[C@@H](CCCNC(=N)N)C(=O)N[C@@H](CCC(N)=O)C(=O)N[C@@H](CCCCN)C(=O)N[C@H](C(=O)O)C(C)C)C(C)C (stereo partly shown) [G-KV21] (HELM PEPTIDE1{G.F.L.S.K.S.L.V.F.W.Q.E.E.[CS(=O)CC[C@H](N[*:1])C(=O)[*:2]].E.L.Y.R.Q.K.V}$$$$V2.0)	significantly inhibit the tumor growth	significantly inhibit the LPS-induced cytokine release	significantly improve survival	mediated with scavenger receptors (SR) A (SR-A) and BI (SR-B1) with SR-A being the predominant mediator	enhances in vitro macrophage endocytosis	significantly decrease the tumor weight	significantly inhibit the tumor growth	inhibit production of cytokines by LPS-stimulated macrophages
